Results published in patent publication US10646472B2, “Composition comprising a photosensitive compound in a polymeric nanoparticle, and a method of using the composition” (Oregon State University, priority 2015, dated 2020).

System: Chinese Hamster Ovary (CHO-K1) cells
Assay: In vitro micronucleus assay (genotoxicity)
Format: cell-based
Conditions: SiNc-NP 90 μg/mL, 24 hours; MMS 50 μg/mL positive control
Procedure: Genotoxicity describes the property of chemical agents that damages the genetic information within a cell causing mutations, which may lead to cancer. An in vitro micronucleus assay was used to determine the genotoxicity of SiNc-NP on Chinese Hamster Ovary (CHO-K1) cells. Cells were treated with SiNc-NP (90 μg/mL) for the experiment group, fresh media for negative control, or methyl methanesulfonate (MMS, 50 μg/mL) for a positive control.
A quantitative analysis was then performed to evaluate the genotoxicity. The analysis counted the number of micronuclei per 1000 cells.

With `COS(C)(=O)=O` [MMS, methyl methanesulfonate] as the compound, how does the “appearance of cell nuclei (fluorescence imaging, DAPI)” value read?
Its value is “noticeable numbers of small buds/fragments appeared on or near cell nuclei”.
